Consider two compounds from patent US12692232B2, “Indole carboxamide compound, preparation therefor and use thereof” (NANJING RUISHUNING MEDICAL TECHNOLOGY CO., LTD., priority 2021, dated 2026).

This assay deals with rat model of pulmonary hypertension induced by monocrotaline. Put plainly: Rat model of pulmonary hypertension induced by monocrotaline. The conditions noted are these: for reduction of TNF-α levels compared with the MCT model: 25 mg/kg; for RV/(LV + S): MCT model 0.45 ± 0.03; for TNF-α in lung tissue: MCT model 0.94 ± 0.07; for mPAP: MCT model 33.7 ± 4.3; for small pulmonary artery lesions compared with the model group (histopathology, H&E): treatment groups. It counts as in vivo. As for the experimental part: The preventive effect of the compounds of the present invention (as exemplified by compound 1-1 obtained in Example 1) on pulmonary hypertension was determined using a rat model of pulmonary hypertension induced by monocrotaline. The method was as follows:
Grouping of animals: 70 male SD rats with weigh of 200±20 g were randomly divided into 7 groups, i.e., a normal control group, a monocrotaline (MCT) model group, a treatment group of low-dose compound 1-1 (10 mg/kg) (MCT), a treatment group of medium-dose compound 1-1 (25 mg/kg) (MCT), a treatment group of high-dose compound 1-1 (50 mg/kg) (MCT), a treatment group of medium-dose indole analogue 3-[(1-methyl-1H-indole-2-carbonyl)amino]propionic acid (25 mg/kg) disclosed in CN2019107285315 (MCT), and a sildenafil group (150 mg/kg) (MCT), with 10 rats in each group.
Experimental procedure: MCT was prepared as a 2% solution with a mixture of ethanol and saline (2:8) and the solution was injected intraperitoneally once at a dose of 60 mg/kg body weight in all groups except the normal control group. Each rat in the normal control group was injected intraperitoneally once with a solution prepared from ethanol and saline in a volume ratio of 2:8. Compound 1-1 obtained in Example 1, the indole analogue 3-[(1-methyl-1H-indole-2-carbonyl)amino]propionic acid disclosed in CN2019107285315, or the positive drug sildenafil was administered by gavage to the mice in the treatment groups on the day of modelling, and saline was administered by gavage to the mice in the normal control group and the MCT model group. The drugs were administered by gavage once a day for 28 days until 12 hours before test.
Determination of hemodynamic indexes: a polyethylene plastic microcatheter filled with heparin solution (0.9% sodium chloride solution+10 U/mL heparin) was inserted into the right external jugular vein of a rat, and the other end of the microcatheter was connected to a miniature pressure transducer to monitor the pressure changes. […] After 30 minutes of stabilization, the POWERLAB multi-channel intelligent physiological signal acquisition and recording system was applied to acquire, record and analyze the indexes.
Determination of the index of right ventricular (RV) hypertrophy: at the end of the experiment, the heart was removed by dissection of the thorax and the atrial tissue was cut off. The right ventricle (RV), left ventricle (LV), and interventricular septum (S) were isolated along the edge of the interventricular septum, and the RV, LV, and S were weighed after absorbing water with filter paper and the ratio RV/(LV+S) was used to reflect the degree of RV hypertrophy.
Pathological examination of pulmonary vessels: tissue blocks were taken from the same site in the lower lobe of the right lung and fixed in 10% neutral formaldehyde (pH=7.4) for 2 days. Routine paraffin embedding, serial sections, H&E staining and light microscopy were performed to observe morphological changes in small pulmonary arteries.
Effect on inflammatory factors in lung tissue: Lung tissues were collected from each group of rats, homogenates of lung tissue were prepared and centrifuged and supernatants were collected. The protein level in the supernatant was determined by Coomassie brilliant blue method, and tumor necrosis factor-α (TNF-α) in rats was determined by an ELISA kit (Beijing 4A Biotech Co., Ltd.). […]

The mark [1] stands for this setting: MCT + 25 mg/kg gavage once a day 28 days.

As for `Cn1c(C(=O)NCCC(=O)O)cc2ccccc21` [3-[(1-methyl-1H-indole-2-carbonyl)amino]propionic acid, reference compound], the “reduction of TNF-α levels compared with the MCT model” value was determined as 37.2% and the “small pulmonary artery lesions compared with the model group (histopathology, H&E)” value is recorded as “significantly reduced”. Moreover, for the setting “MCT + 25 mg/kg gavage 28 days”, the “RV/(LV + S)” value came to 0.38 ± 0.04 and the “TNF-α in lung tissue” value was found to be 0.59 ± 0.07 g/g protein. The mPAP under setting [1] is on record as 28.9 ± 3.4 mmHg.

As to `CC(=O)OCCCNC(=O)c1c(C=O)c2ccccc2n1C` [compound 1-1, propyl 3-[(3-formyl-1-methyl-1H-indole-2-carbonyl)amino]acetate], the “reduction of TNF-α levels compared with the MCT model” value is given as 58.5% and the “small pulmonary artery lesions compared with the model group (histopathology, H&E)” value is on record as “significantly reduced”. For the same compound, where the note is “MCT + 10 mg/kg gavage 28 days”, the “RV/(LV + S)” value came to 0.37 ± 0.04 and the “TNF-α in lung tissue” value is 0.65 ± 0.08 g/g protein. In addition, the mPAP (MCT + 10 mg/kg gavage once a day 28 days) turned out to be 26.0 ± 2.8 mmHg. For the setting “MCT + 25 mg/kg gavage 28 days”, the “RV/(LV + S)” value came to 0.31 ± 0.04 and the “TNF-α in lung tissue” value stood at 0.39 ± 0.05 g/g protein. In addition, the mPAP under setting [1] was found to be 25.8 ± 2.5 mmHg. Where the note is “MCT + 50 mg/kg gavage 28 days”, the “RV/(LV + S)” value is given as 0.28 ± 0.03 and the “TNF-α in lung tissue” value amounted to 0.34 ± 0.05 g/g protein. Besides, the mPAP (MCT + 50 mg/kg gavage once a day 28 days) was 20.3 ± 3.0 mmHg.
